Measured values taken from patent US12202835B2, “Substituted aromatic ring-linked dioxinoquinazolines and dioxinoquinolines as kinase inhibitors” (BEIJING SCITECH-MQ PHARMACEUTICALS LIMITED, priority 2018, dated 2025).

How the values were obtained:
c-MET kinase = c-MET kinase (Homo sapiens (Human), UniProt P08581); test: Assay of small molecular compounds for inhibiting the activity of c-MET kinase (LANCE TR-FRET); type: biochemical; conditions: read-out: CMET IC50
In short: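 LANCE TR-FRET assay with c-MET at 1 nM final after a 5 min room-temperature preincubation with compound (11-point, 3-fold series, 2500–0.042 nM final, 4% DMSO). ULight-JAK-1 (Tyr1023) peptide (100 nM final) and ATP (10 μM final) reacted 60 min in the dark. Inhibition was taken relative to controls, then IC50 fitted.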

Ba/F3-AXL cells = test: Assay for inhibiting the proliferation of Ba/F3-AXL cells (CCK-8); type: cell-based; conditions: 72 hours of incubation, medium with 100 ng/mL hGas6, CCK-8
Method: The values were then imported into Graphpad Prism 5 software for curve fitting, and IC50 was calculated.

Ba/F3 LMNA-NTRK1 cells = test: Assay for inhibiting the proliferation of Ba/F3 LMNA-NTRK1 cells (CCK-8); type: cell-based; conditions: Mus musculus, BaF3
In short: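 Cells were seeded and cultured overnight, then treated with graded compound concentrations (final DMSO 0.25%) for 72 h. CCK-8 was added for 1–2 h at 37 °C and OD450 read. Survival was normalised to untreated and cell-free blank wells, and IC50 was fitted.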

Sequence of c-MET kinase (P08581 25-1390): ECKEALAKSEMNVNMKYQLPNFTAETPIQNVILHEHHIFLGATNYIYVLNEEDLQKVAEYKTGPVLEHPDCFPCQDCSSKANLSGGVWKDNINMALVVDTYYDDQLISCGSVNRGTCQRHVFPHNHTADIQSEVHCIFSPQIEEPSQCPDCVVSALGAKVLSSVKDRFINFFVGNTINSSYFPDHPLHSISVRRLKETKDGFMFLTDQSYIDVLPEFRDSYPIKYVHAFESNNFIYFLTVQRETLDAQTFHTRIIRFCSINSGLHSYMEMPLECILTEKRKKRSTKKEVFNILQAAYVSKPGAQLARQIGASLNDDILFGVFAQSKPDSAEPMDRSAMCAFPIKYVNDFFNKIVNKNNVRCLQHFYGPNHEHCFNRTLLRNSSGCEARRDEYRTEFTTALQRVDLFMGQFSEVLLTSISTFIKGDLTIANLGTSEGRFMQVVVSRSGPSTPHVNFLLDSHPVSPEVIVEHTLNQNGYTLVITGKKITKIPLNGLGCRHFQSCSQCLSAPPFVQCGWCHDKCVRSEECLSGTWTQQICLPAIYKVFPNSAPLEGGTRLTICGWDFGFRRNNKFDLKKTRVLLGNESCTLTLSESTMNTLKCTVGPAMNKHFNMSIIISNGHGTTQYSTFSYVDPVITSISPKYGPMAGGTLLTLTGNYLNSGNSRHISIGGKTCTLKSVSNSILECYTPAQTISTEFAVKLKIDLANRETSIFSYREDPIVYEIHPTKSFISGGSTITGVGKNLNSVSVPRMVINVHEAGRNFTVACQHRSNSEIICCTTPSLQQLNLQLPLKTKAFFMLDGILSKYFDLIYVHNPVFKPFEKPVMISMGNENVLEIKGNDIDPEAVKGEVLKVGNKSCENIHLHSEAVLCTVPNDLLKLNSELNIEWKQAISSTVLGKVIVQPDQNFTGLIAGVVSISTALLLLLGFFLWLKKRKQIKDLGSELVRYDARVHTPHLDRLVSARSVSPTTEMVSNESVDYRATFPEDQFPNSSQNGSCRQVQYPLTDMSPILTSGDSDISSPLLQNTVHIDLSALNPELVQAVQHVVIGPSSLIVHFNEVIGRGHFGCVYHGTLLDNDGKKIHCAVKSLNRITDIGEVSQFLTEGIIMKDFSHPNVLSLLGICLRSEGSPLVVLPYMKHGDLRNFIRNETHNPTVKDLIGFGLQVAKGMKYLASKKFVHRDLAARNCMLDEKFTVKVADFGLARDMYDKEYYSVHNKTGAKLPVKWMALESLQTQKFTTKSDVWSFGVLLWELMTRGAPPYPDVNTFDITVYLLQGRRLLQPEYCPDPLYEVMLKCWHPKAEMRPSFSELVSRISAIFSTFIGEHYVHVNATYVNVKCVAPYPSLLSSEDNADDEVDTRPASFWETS

Structure (SMILES) | IC50 (c-MET kinase) [nM] | IC50 (Ba/F3-AXL cells) [nM] | IC50 (Ba/F3 LMNA-NTRK1 cells) [nM]
CC(C)n1cc(C(=O)Nc2ccc(Oc3ccnc4cc(OCCCN5CCCCC5)c5c(c34)OCCO5)c(F)c2)c(=O)n(-c2ccc(F)cc2)c1=O [Example 40, N-(3-fluoro-4-((5-(3-(piperidin-1-yl)propoxy)-2,3-dihydro-[1,4]dioxino[2,3-f]quinolin-10-yl)oxy)phenyl)-3-(4-fluorophenyl)-1-isopropyl-2,4-dioxo-1,2,3,4-tetrahydropyrimidine-5-carboxamide] | ≤ 50 | < 50 | < 50
CC(C)n1cc(C(=O)Nc2ccc(Oc3ccnc4cc(OCCCN5CCC(C)(O)CC5)c5c(c34)OCCO5)c(F)c2)c(=O)n(-c2ccc(F)cc2)c1=O [Example 94, N-(3-fluoro-4-((5-(3-(4-methyl-4-hydroxypiperidin-1-yl)propoxy)-2,3-dihydro-[1,4]dioxino[2,3-f]quinolin-10-yl)oxy)phenyl)-3-(4-fluorophenyl)-1-isopropyl-2,4-dioxo-1,2,3,4-tetrahydropyrimidine-5-carboxamide] | ≤ 50 | < 50 | 50 to 200
COCCN(C)CCCOc1cc2nccc(Oc3ccc(NC(=O)c4cn(C(C)C)c(=O)n(-c5ccc(F)cc5)c4=O)cc3F)c2c2c1OCCO2 [Example 95, N-(3-fluoro-4-((5-(3-((2-methoxyethyl)(methyl)amino)propoxy)-2,3-dihydro-[1,4]dioxino[2,3-f]quinolin-10-yl)oxy)phenyl)-3-(4-fluorophenyl)-1-isopropyl-2,4-dioxo-1,2,3,4-tetrahydropyrimidine-5-carboxamide] | ≤ 50 | < 50 | 50 to 200
COc1cc2nccc(Oc3ccc(NC(=O)c4cn(CC(=O)O)c(=O)n(-c5ccc(F)cc5)c4=O)cc3F)c2c2c1OCCO2 [Example 104, 2-(5-((3-fluoro-4-((5-methoxy-2,3-dihydro-[1,4]dioxino[2,3-f]quinolin-10-yl)oxy)phenyl)carbamoyl)-3-(4-fluorophenyl)-2,4-dioxo-3,4-dihydropyrimidin-1(2H)-yl)acetic acid] | ≤ 50 | > 5000 | > 1000
CCOc1ccn(Cc2ccccc2)c(=O)c1C(=O)Nc1ccc(Oc2ccnc3cc(OC)c4c(c23)OCCO4)c(F)c1 [Example 117, N-(3-fluoro-4-((5-methoxy-2,3-dihydro-[1,4]dioxino[2,3-f]quinolin-10-yl)oxy)phenyl)-2-oxo-4-ethoxy-1-benzyl-1,2-dihydropyridin-3-carboxamide] | ≤ 50 | < 50 | –
CCOc1ccn(-c2ccc(F)cc2)c(=O)c1C(=O)Nc1ccc(Oc2ccnc3cc(OCC(C)(C)O)c4c(c23)OCCO4)c(F)c1 [Example 120, N-(3-fluoro-4-((5-(2-hydroxy-2-methylpropoxy)-2,3-dihydro-[1,4]dioxino[2,3-f]quinolin-10-yl)oxy)phenyl)-4-ethoxy-1-(4-fluorophenyl)-2-oxo-1,2-dihydropyridine-3-carboxamide] | ≤ 50 | < 50 | < 50
Cn1cc(C(=O)Nc2ccc(Oc3ccnc4cc(OCC(C)(C)O)c5c(c34)OCCO5)c(F)c2)c(=O)n(-c2ccc(F)cc2)c1=O [Example 121, N-(3-fluoro-4-((5-(2-hydroxy-2-methylpropoxy)-2,3-dihydro-[1,4]dioxino[2,3-f]quinolin-10-yl)oxy)phenyl)-3-(4-fluorophenyl)-1-methyl-2,4-dioxo-1,2,3,4-tetrahydropyrimidine-5-carboxamide] | 50 to 500 | < 50 | –
CCOc1ccn(-c2ccc(F)cc2)c(=O)c1C(=O)Nc1ccc(Oc2ccnc3cc(OC)c4c(c23)OCCO4)cc1Cl [Example 126, N-(2-chloro-4-((5-methoxy-2,3-dihydro-[1,4]dioxino[2,3-f]quinolin-10-yl)oxy)phenyl)-1-(4-fluorophenyl)-4-ethoxy-2-oxo-1,2-dihydropyridine-3-carboxamide] | ≤ 50 | < 50 | < 50
CCOc1cc2nccc(Oc3ccc(NC(=O)c4cccn(-c5ccc(F)cc5)c4=O)c(Cl)c3)c2c2c1OCCO2 [Example 127, N-(2-chloro-4-((5-ethoxy-2,3-dihydro-[1,4]dioxino[2,3-f]quinolin-10-yl)oxy)phenyl)-1-(4-fluorophenyl)-2-oxo-1,2-dihydropyridine-3-carboxamide] | ≤ 50 | – | < 50
CCOc1cc2nccc(Oc3ccc(NC(=O)c4c(OC)ccn(-c5ccc(F)cc5)c4=O)c(Cl)c3)c2c2c1OCCO2 [Example 128, N-(2-chloro-4-((5-ethoxy-2,3-dihydro-[1,4]dioxino[2,3-f]quinolin-10-yl)oxy)phenyl)-1-(4-fluorophenyl)-4-methoxy-2-oxo-1,2-dihydropyridine-3-carboxamide] | ≤ 50 | – | < 50
CCOc1cc2nccc(Oc3ccc(NC(=O)c4c(OCC)ccn(-c5ccc(F)cc5)c4=O)c(Cl)c3)c2c2c1OCCO2 [Example 130, N-(2-chloro-4-((5-ethoxy-2,3-dihydro-[1,4]dioxino[2,3-f]quinolin-10-yl)oxy)phenyl)-1-(4-fluorophenyl)-4-ethoxy-2-oxo-1,2-dihydropyridine-3-carboxamide] | ≤ 50 | – | < 50
O=C(Nc1ccc(Oc2ccnc3cc(OCCCN4CCCCC4)c4c(c23)OCCO4)cc1Cl)c1cccn(-c2ccc(F)cc2)c1=O [Example 135, N-(2-chloro-4-((5-((3-piperidin-1-yl)propoxy)-2,3-dihydro-[1,4]dioxino[2,3-f]quinolin-10-yl)oxy)phenyl)-1-(4-fluorophenyl)-2-oxo-1,2-dihydropyridine-3-carboxamide] | ≤ 50 | – | < 50
COc1ccn(-c2ccc(F)cc2)c(=O)c1C(=O)Nc1ccc(Oc2ccnc3cc(OCCCN4CCCCC4)c4c(c23)OCCO4)cc1Cl [Example 136, N-(2-chloro-4-((5-((3-piperidin-1-yl)propoxy)-2,3-dihydro-[1,4]dioxino[2,3-f]quinolin-10-yl)oxy)phenyl)-1-(4-fluorophenyl)-4-methoxy-2-oxo-1,2-dihydropyridine-3-carboxamide] | ≤ 50 | – | < 50
CCOc1ccn(-c2ccc(F)cc2)c(=O)c1C(=O)Nc1ccc(Oc2ccnc3cc(OCCCN4CCCCC4)c4c(c23)OCCO4)cc1Cl [Example 138, N-(2-chloro-4-((5-((3-piperidin-1-yl)propoxy)-2,3-dihydro-[1,4]dioxino[2,3-f]quinolin-10-yl)oxy)phenyl)-1-(4-fluorophenyl)-4-ethoxy-2-oxo-1,2-dihydropyridine-3-carboxamide] | ≤ 50 | – | < 50
CC(C)(O)COc1cc2nccc(Oc3ccc(NC(=O)c4cccn(-c5ccc(F)cc5)c4=O)c(Cl)c3)c2c2c1OCCO2 [Example 139, N-(2-chloro-4-((5-(2-hydroxy-2-methylpropoxy)-2,3-dihydro-[1,4]dioxino[2,3-f]quinolin-10-yl)oxy)phenyl)-1-(4-fluorophenyl)-2-oxo-1,2-dihydropyridine-3-carboxamide] | ≤ 50 | – | < 50
COc1ccn(-c2ccc(F)cc2)c(=O)c1C(=O)Nc1ccc(Oc2ccnc3cc(OCC(C)(C)O)c4c(c23)OCCO4)cc1Cl [Example 140, N-(2-chloro-4-((5-(2-hydroxy-2-methylpropoxy)-2,3-dihydro-[1,4]dioxino[2,3-f]quinolin-10-yl)oxy)phenyl)-1-(4-fluorophenyl)-4-methoxy-2-oxo-1,2-dihydropyridine-3-carboxamide] | ≤ 50 | – | < 50
O=C(Nc1ccc(Oc2ccnc3cc(OCCCN4CCOCC4)c4c(c23)OCCO4)cc1Cl)c1cccn(-c2ccc(F)cc2)c1=O [Example 143, N-(2-chloro-4-((5-(3-morpholinopropoxy)-2,3-dihydro-[1,4]dioxino[2,3-f]quinolin-10-yl)oxy)phenyl)-1-(4-fluorophenyl)-2-oxo-1,2-dihydropyridine-3-carboxamide] | ≤ 50 | – | < 50
O=C(Nc1ccc(Oc2ccnc3ccc4c(c23)OCCO4)c(F)c1)c1cccn(-c2ccc(F)cc2)c1=O [Example 169, N-(4-((2,3-dihydro-[1,4]dioxino[2,3-f]quinolin-10-yl)oxy)-3-fluorophenyl)-1-(4-fluorophenyl)-2-oxo-1,2-dihydropyridine-3-carboxamide] | ≤ 50 | – | –
O=C(Nc1ccc(Oc2ccnc3ccc4c(c23)OCCO4)cc1F)c1cccn(-c2ccc(F)cc2)c1=O [Example 170, N-(4-((2,3-dihydro-[1,4]dioxino[2,3-f]quinolin-10-yl)oxy)-2-fluorophenyl)-1-(4-fluorophenyl)-2-oxo-1,2-dihydropyridine-3-carboxamide] | 50 to 500 | – | –
CCOc1ccn(-c2ccc(F)cc2)c(=O)c1C(=O)Nc1ccc(Oc2ccnc3ccc4c(c23)OCCO4)cc1F [Example 171, N-(4-((2,3-dihydro-[1,4]dioxino[2,3-f]quinolin-10-yl)oxy)-2-fluorophenyl)-1-(4-fluorophenyl)-4-ethoxy-2-oxo-1,2-dihydropyridine-3-carboxamide] | ≤ 50 | – | –
COc1ccn(-c2ccc(F)cc2)c(=O)c1C(=O)Nc1ccc(Oc2ccnc3ccc4c(c23)OCCO4)cc1F [Example 172, N-(4-((2,3-dihydro-[1,4]dioxino[2,3-f]quinolin-10-yl)oxy)-2-fluorophenyl)-1-(4-fluorophenyl)-4-methoxy-2-oxo-1,2-dihydropyridine-3-carboxamide] | 50 to 500 | – | –
